Laboratory results as given in patent publication US20110059948A1, “QUINOLINE, NAPHTHALENE AND CONFORMATIONALLY CONSTRAINED QUINOLINE OR NAPHTHALENE DERIVATIVES AS ANTI-MYCOBACTERIAL AGENTS” (priority 2008, published 2011).
Values after ≈ are worked out from the molar mass of the structure shown. Like-named read-outs stand apart in the source and are kept apart here.

What was measured:
[1] = system: M. Tuberculosis strain (H37RV); test: In vitro agar dilution assay (MIC, NCCLS-M24-T2); assay type: cell-based, Mycobacterium tuberculosis; settings: for MIC: Mycobacterium tuberculosis, ATCC 27294 / H37Rv, read-out: MIC against M. tuberculosis (H37RV ATCC27294)
[2] = system: M. avium-intracellular Complex; test: In vitro agar dilution assay (MIC); assay type: cell-based, Mycobacterium avium-intracellular complex; settings: for MIC M. avium-intracellulare Complex (n = 10): n = 10 strains tested
[3] = system: M. fortuitum; test: In vitro agar dilution assay (MIC); assay type: cell-based, Mycobacterium fortuitum; settings: n = 2 strains tested
[4] = system: M. kansasii; test: In vitro agar dilution assay (MIC); assay type: cell-based, Mycobacterium kansasii; settings: n = 2 strains tested
[5] = system: clinical isolates generally susceptible to common tubercular agents; test: microbe, parasite or virus in culture; assay type: cell-based, Mycobacterium tuberculosis; settings: for MIC M. tuberculosis Sensitive (n = 20): clinical isolates, n = 20 strains tested
[6] = system: M. tuberculosis H37RV ATCC 27294; test: In vitro growth inhibition assay, BACTEC 460 TB system; assay type: cell-based, Mycobacterium tuberculosis
[7] = system: M. Tuberculosis strain (H37RV); settings: Janssen WO2004/011436; cited from earlier work
[8] = agar dilution, Middlebrook 7H10

COc1nc2ccc(Br)cc2cc1C(Nc1ccc2oc(=O)ccc2c1)c1ccccc1 (racemic)
melting point: 88 to 89 °C

CO[C@H]1/C=C/O[C@@]2(C)Oc3c(C)c(O)c4c(O)c(c(/C=N/N5CCN(C)CC5)c(O)c4c3C2=O)NC(=O)/C(C)=C\C=C\[C@H](C)[C@H](O)[C@@H](C)[C@@H](O)[C@@H](C)[C@H](OC(C)=O)[C@@H]1C [Refampin, Rifampicin, reference compound]
MIC [1]: 0.25 µg/mL (≈ 0.304 µM)

NNC(=O)c1ccncc1 [Isoniazid, reference compound]
MIC [1, 8]: 0.25 µg/mL (≈ 1.82 µM) | MIC ([2]; Mycobacterium, read-out: MIC M. avium-intracellulare Complex (n = 10)): > 16 µg/mL | MIC ([3]; Mycolicibacterium fortuitum, read-out: MIC M. fortuitum (n = 2)): > 16 µg/mL | MIC ([4]; Mycobacterium kansasii, read-out: MIC M. kansasii (n = 2)): > 16 µg/mL | MIC ([5]; Mycobacterium tuberculosis, read-out: MIC M. tuberculosis Sensitive (n = 20)): 0.25 µg/mL (≈ 1.82 µM)

COc1nc2ccc(Br)cc2cc1C(c1ccccc1)n1cccn1 (racemic)
melting point: 142 to 144 °C

COC(=O)C(C(=O)N1CCOCC1)C(c1ccccc1)c1cc2cc(Br)ccc2nc1OC (stereo not drawn) [Example 1] [listing 1 of 2 here]
melting point: 206 to 208 °C

ON=C1c2ccccc2-c2c1c(N1CCN(c3ccccn3)CC1)nc1ccc(Br)cc21 [Example 134]
mark “a” at the serial number (99% inhibition at <4 μg/ml), Tables 5A-N, 6-10 [6]: 134a (Compounds marked with “a” have shown 99% inhibition at <4 μg/ml) | MIC against M. tuberculosis (H37RV ATCC27294) [1, 8]: <6.25 µg/mL | MIC M. avium-intracellulare Complex (n = 10) [2]: <6.25 µg/mL | MIC M. fortuitum (n = 2) [3]: >8.0 µg/mL | MIC M. kansasii (n = 2) [4]: >8.0 µg/mL | MIC M. tuberculosis Sensitive (n = 20) [5]: <6.25 µg/mL

CC(O)c1cc(F)ccc1Oc1nc2ccc(NC(=O)Nc3cccc([N+](=O)[O-])c3)cc2cc1Cc1ccccc1 (stereo not drawn)
melting point: 217 to 219 °C

CC(c1cc(F)ccc1Oc1nc2ccc(-n3cc(-c4ccccc4)nn3)cc2cc1Cc1ccccc1)n1ccnc1 (stereo not drawn) [Example 23]
mark “a” at the serial number (99% inhibition at <4 μg/ml), Tables 2-4 [6]: 23a (Compounds marked with “a” have shown 99% inhibition at <4 μg/ml) | MIC against M. tuberculosis (H37RV ATCC27294) [1, 8]: <3.125 µg/mL | MIC M. avium-intracellulare Complex (n = 10) [2]: <4.0 µg/mL | MIC M. fortuitum (n = 2) [3]: <4.0 µg/mL | MIC M. kansasii (n = 2) [4]: <4.0 µg/mL | MIC M. tuberculosis Sensitive (n = 20) [5]: <3.125 µg/mL

COc1nc2ccc(Br)cc2c2c1C(C)(OCC(O)Cn1ccc(-c3ccc(C(F)(F)F)cc3)n1)c1ccccc1-2 (stereo not drawn)
melting point: 65 to 67 °C

COc1nc2ccc(Br)cc2cc1C(c1ccccc1)n1ccnc1 (racemic)
melting point: 161 to 162 °C

CC(O)c1cc(F)ccc1Oc1nc2ccc(NC(=O)Nc3cccc([N+](=O)[O-])c3)cc2cc1Cc1ccccc1 (stereo not drawn) [Example 31]
mark “a” at the serial number (99% inhibition at <4 μg/ml), Tables 2-4 [6]: 31a (Compounds marked with “a” have shown 99% inhibition at <4 μg/ml) | MIC against M. tuberculosis (H37RV ATCC27294) [1, 8]: <3.125 µg/mL | MIC M. avium-intracellulare Complex (n = 10) [2]: >8.0 µg/mL | MIC M. fortuitum (n = 2) [3]: >8.0 µg/mL | MIC M. kansasii (n = 2) [4]: >8.0 µg/mL | MIC M. tuberculosis Sensitive (n = 20) [5]: <6.25 µg/mL

COc1cccc(NC(=O)Nc2ccc3nc(Oc4ccc(F)cc4C(C)O)c(Cc4ccccc4)cc3c2)c1 (stereo not drawn) [Example 26]
mark “a” at the serial number (99% inhibition at <4 μg/ml), Tables 2-4 [6]: 26a (Compounds marked with “a” have shown 99% inhibition at <4 μg/ml) | MIC against M. tuberculosis (H37RV ATCC27294) [1, 8]: <3.125 µg/mL | MIC M. avium-intracellulare Complex (n = 10) [2]: <4.0 µg/mL | MIC M. fortuitum (n = 2) [3]: <4.0 µg/mL | MIC M. kansasii (n = 2) [4]: <4.0 µg/mL | MIC M. tuberculosis Sensitive (n = 20) [5]: <3.125 µg/mL

COc1nc2ccc(Br)cc2cc1C(c1ccccc1)[C@@](O)(CCN(C)C)c1cccc2ccccc12 (stereo partly drawn) [Example R207910]
MIC value against the M. Tuberculosis strain (H37RV) [7]: 0.07 µg/mL (≈ 0.126 µM)

COC(=O)C(C(=O)N1CCOCC1)C(c1ccccc1)c1cc2cc(Br)ccc2nc1OC (stereo not drawn) [Example 1] [listing 2 of 2 here]
melting point: 187.5 to 189.5 °C

CC(c1cc(F)ccc1Oc1nc2ccc(-n3cc(-c4ccccc4)nn3)cc2cc1Cc1ccccc1)n1ccnc1 (stereo not drawn)
melting point: 118 to 120 °C
